Reference: patent publication US11365215B2, “Method for preventing, improving, or treating inflammatory bowel disease” (Research & Business Foundation Sungkyunkwan University, priority 2015, dated 2022)
Peptide text beside a SMILES is read from it.

How the values were obtained:
[1] = system: G-CSF, IL-2, SCF, VEGF, CX3CL1, IGFBP5, IGFBP6, IL-1α, IL-1β, IL-6, IL-9, MCP-1, MIP-3α, IL12p40/70, MIG, TNF-α, and VCAM-1; experiment: Cytokine array (Mouse cytokine array C3) of LPS-treated RAW 264.7 macrophage cells; assay type: cell-based; conditions: 100 nM for 30 minutes, LPS two hours, densitometer
Procedure: First, RAW 264.7 macrophage cells were purchased from American Type Culture Collection (ATCC; Manassas, Va.), and were culture at a temperature of 37° C., under 5% CO2 atmosphere, using 10% Fetal Bovine Serum (FBS) and Dulbecco's Modified Eagle's Medium (DMEM) containing 1% penicillin/streptomycin.
In addition, RAW 264.7 macrophage cells cultured as described above were also divided into a 6-well plate, after 24 hours, were pretreated with 100 nM of compound 1.1 (SEQ ID NO: 2) for 30 minutes, and further treated with LPS for two hours. The above cell culture was collected and, using a cytokine array (Mouse cytokine array C3, RayBiotech), changes in amounts of cytokine and chemokine were quantified by a densitometer. The cytokines and chemokines detected by the compound of the present invention included G-CSF, IL-2, SCF, VEGF, CX3CL1, IGFBP5, IGFBP6, IL-1α, IL-1β, IL-6, IL-9, MCP-1, MIP-3α, IL12p40/70, MIG, TNF-α, and VCAM-1.

[2] = system: inflammatory signaling pathway protein complex mediated by MyD88 or RIP1; experiment: Immunoprecipitation of inflammatory signaling pathway protein complex in LPS-treated RAW264.7 cells; assay type: cell-based; conditions: pretreated, then LPS
From the text: Specifically, using antibodies corresponding to proteins which relate to the formation of Toll-like receptors (TLRs) signaling pathway protein complex (for example, IRAK1, TRAF6, MyD88, RIP1 and Pellino-1), disruption of the formation of inflammatory signaling pathway protein complexes was affirmed by immunoprecipitation. As reference control, a relative amount of expression of β-actin from the total cell lysate was compared and presented using Western blot.
RAW264.7 macrophage cells were individually retreated with compound 1.1 (SEQ ID NO: 2) and compound 1.2, and smaducin-6, and further treated with LPS. These RAW264.7 macrophage cells were collected, lysed in a lysis butter (PBS containing 0.5% Triton X-100, 20 mM HEPES (pH 7.4), 150 mM NaCl, 12.5 mM β-glycerol phosphate, 1.5 mM MgCl2, 10 mM NaF, 2 mM DTT, 1 mM Na3O4V, 2 mM EGTA, and 1 mM Protease Inhibitor (PMSF)), and centrifuged at 13000 rpm for 10 minutes. For immunoprecipitation assays, the supernatant was incubated at 4° C. for 12 hours, with protein-A agarose beads and the antibodies corresponding to the above proteins, and the beads were subsequently washed three times with the lysis buffer. The immunoprecipitated substances were dissociated from the beads with addition of 2× sample buffer, and were boiled. The prepared samples were loaded on SDS-polyacrylamide gel (FIG. 7).

[3] = system: MAPK signaling pathway proteins (ERK1/2, JNK, p38); experiment: Western blot of MAPK signaling pathway protein phosphorylation in LPS-treated BMDM cells; assay type: cell-based; conditions: 100 pM, 1 nM, 100 nM, LPS 2 hours
Procedure: BMDM cells were pretreated with DMSO, reference compound 1 (SEQ ID NO: 16), compound 1.1 (SEQ ID NO: 2) and smaducin-6 at various concentrations of 100 pM, 1 nM and 100 nM and then further treated with LPS 2 hours. Thereafter, Western blot analysis was performed.

[4] = target: T1, inflammatory signaling pathway complex mediated by MyD88 and RIP1 (Mus musculus, UniProt P22366+Q60855); experiment: Immunoprecipitation/immunoblot of inflammatory signaling pathway complex in LPS-treated BMDM cells; assay type: cell-based; conditions: 100 pM, 1 nM, 100 nM, then 100 ng/mL LPS
T1 construct: endogenous in cells; host or cells: bone-marrow-derived macrophage (BMDM) cells
Procedure: Bone-marrow-derived macrophage (BMDM) cells were individually pretreated with compound 1.1 (SEQ ID NO: 2), reference compound 1 (SEQ ID NO: 16), and smaducin-6 at various concentrations of 100 pM, 1 nM, and 100 nM, and then further treated with 100 ng/mL of LPS.

AP-1 = experiment: AP-1-Luc reporter luciferase assay in LPS-treated RAW 246.7 cells; assay type: cell-based; conditions: 100 nM for 30 minutes, LPS 100 ng/ml 2 hours
Procedure: RAW 246.7 macrophage cells were transfected with AP-1-Luc reporter plasmid as described in Example 2.3. After 24 hours, the transfected cells with AP-1-Luc reporter plasmid were pretreated with compound 1.1 (SEQ ID NO: 2) (100 nM), IRAK1/4 inhibitor (25 μM), and smaducin-6 (100 nM) for 30 minutes, and then further treated with LPS (100 ng/ml) for 2 hours.

[5] = Plasma concentration / pharmacokinetics after intravenous and oral administration; assay type: in vivo, Male SD rat
Procedure: Compound 1.1 (SEQ ID NO: 2) was administered to a rat intravenously (I.V., 5 mg/kg) or orally (50 mg/kg), and 24 hours after administration, the concentration of compound 1.1 (SEQ ID NO: 2) in plasma was measured (FIG. 18 and FIG. 19).

VEGF = experiment: qRT-PCR of VEGF in high-glucose HRMEC cells; assay type: cell-based; conditions: 30 mM glucose 48 hours, 10 nM and 50 nM
Procedure: In addition, HRMEC cells were treated with 5.5 mM of glucose for reference group. For experiment group, the HRMEC cells were treated with 30 mM of glucose for 48 hours to induce high blood glucose condition, and simultaneously treated with DMSO, compound 1.1 (SEQ ID NO: 2) (10 nM), and compound 1.1 (SEQ ID NO: 2) (50 nM). Changes in expression of Nox-4, VEGF, VEGFR1, VEGFR2, Ang1, Ang2, Tie-2, EPO, and EPOR proteins were quantitatively measured by qRT-PCR (quantitative RT-PCR). Expression of VEGF precursor as stimulating factor of new blood vessel was reduced by treatment with compound 1.1 (SEQ ID NO: 2) (FIG. 25C).

[6] = system: DSS-induced chronic colitis; experiment: Disease activity index in DSS-induced chronic colitis model; assay type: in vivo, Mice (C57BL/6); conditions: mice
Procedure: Mice (7-8 weeks, female, C57BL/6) were fed 2% DSS polymer (MW of about 50000 Da) in drinking water for 5-7 days, and colitis was induced every 2 to 15 days. Compound 1.1 (SEQ ID NO: 2) was then administered orally to the mice, which had induced chronic colitis by DSS, in an amount of 50 mg/kg, 100 mg/kg, 200 mg/kg and 400 mg/kg, respectively, from the third day after feeding DDS, daily, for 11 days. Body weights, diarrhea and hemafecia of the mice were checked daily and the disease activity indexes were measured (FIG. 10).

[7] = plasma, iv, Male SD rat, single dose 5 mg/kg (i.v.)

T1 sequence (P22366 whole entry): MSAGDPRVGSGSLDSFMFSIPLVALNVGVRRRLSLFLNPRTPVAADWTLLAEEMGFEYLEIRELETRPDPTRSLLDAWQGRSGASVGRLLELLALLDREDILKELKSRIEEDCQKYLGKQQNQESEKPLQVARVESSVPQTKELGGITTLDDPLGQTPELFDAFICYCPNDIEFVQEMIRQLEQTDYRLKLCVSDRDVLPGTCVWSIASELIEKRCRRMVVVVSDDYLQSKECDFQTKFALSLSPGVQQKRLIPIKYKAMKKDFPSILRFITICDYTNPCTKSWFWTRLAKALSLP
T1 sequence (Q60855 whole entry): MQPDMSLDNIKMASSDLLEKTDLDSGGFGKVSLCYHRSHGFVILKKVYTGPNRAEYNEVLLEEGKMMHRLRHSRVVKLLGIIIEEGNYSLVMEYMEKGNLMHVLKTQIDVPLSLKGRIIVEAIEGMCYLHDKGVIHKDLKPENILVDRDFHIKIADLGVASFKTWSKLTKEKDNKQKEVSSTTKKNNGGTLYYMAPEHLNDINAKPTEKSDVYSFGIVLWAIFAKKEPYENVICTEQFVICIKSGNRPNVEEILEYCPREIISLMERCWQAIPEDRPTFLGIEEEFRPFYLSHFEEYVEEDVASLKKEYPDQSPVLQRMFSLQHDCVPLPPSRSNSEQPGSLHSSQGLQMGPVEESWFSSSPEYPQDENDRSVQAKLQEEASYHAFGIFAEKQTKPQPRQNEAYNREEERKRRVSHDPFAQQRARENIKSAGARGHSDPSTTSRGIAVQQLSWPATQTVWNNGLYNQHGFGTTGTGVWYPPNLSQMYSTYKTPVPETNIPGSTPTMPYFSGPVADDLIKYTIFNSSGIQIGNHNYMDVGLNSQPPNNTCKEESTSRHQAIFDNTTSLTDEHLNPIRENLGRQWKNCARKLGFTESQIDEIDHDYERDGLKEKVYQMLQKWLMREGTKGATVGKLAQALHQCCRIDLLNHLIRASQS

CCCCCCCCCCCCCCCC(=O)N1CCC[C@H]1C(=O)N1CCC[C@H]1C(=O)NCC(=O)N[C@@H](Cc1ccc(O)cc1)C(=O)O [compound 1.1, (S)-3-(4-hydroxyphenyl)-2-(2-((S)-1-((S)-1-palmitoylpyrrolidine-2-carbonyl)pyrrolidine-2-carboxamido)acetamido)propanoic acid] (HELM PEPTIDE1{[CCCCCCCCCCCCCCCC(=O)[*:2]].P.P.G.Y}$$$$V2.0)
expression of cytokines and chemokines induced by LPS (G-CSF, IL-2, SCF, VEGF, CX3CL1, IGFBP5, IGFBP6, IL-1α, IL-1β, IL-6, IL-9, MCP-1, MIP-3α, IL12p40/70, MIG, TNF-α, VCAM-1) [1]: suppressed as statistically meaningful
formation of inflammatory signaling pathway protein complex mediated by MyD88 or RIP1 [2]: disrupted
phosphorylation of MAPK/ERK signaling pathway proteins (ERK1/2, JNK, p38) [3]: not related to suppressing phosphorylation
formation of inflammatory signaling pathway complex mediated by MyD88 and RIP1 [4]: further disrupted in an increasing dose dependent manner
AP-1-Luc luciferase activity (MAPK signaling pathway) (AP-1): did not suppress MAPK signaling pathways
AUC(0-t) [5, 7]: 2140 ng·h/mL
Cmax [5, 7]: 6020 ng/mL
Tmax [5, 7]: 4.8 min
clearance [5, 7]: 45 mL/min/kg
Vd ([5]; plasma, iv, Male SD rat, single dose 5 mg/kg (i.v.), read-out: Vss): 5.4 ± 1 L/kg
Tmax ([5]; plasma, po, Male SD rat, single dose 50 mg/kg (p.o.)): 0 min
time within which the concentration decreased to 1/100 of the initial concentration ([5]; rat, intravenous 5 mg/kg): 1 to 2 h
concentration detected in blood ([5]; rat, intravenous 5 mg/kg, within 8 hours from the administration): very low concentration
detection in blood ([5]; rat, oral 50 mg/kg, after 30 minutes from the oral administration): not detected
expression of VEGF precursor (VEGF): reduced
disease activity (disease activity index score) ([6]; oral 50, 100, 200, 400 mg/kg daily for 11 days): decreased as the dose increased
dose at which the decrease in disease activity was saturated ([6]; oral daily for 11 days): 200 mg/kg
